Data published in patent US20220395496A1 (Hoffmann-La Roche Inc., priority 2019, published 2022).

What follows are compounds tested against T1, human TLR7 (Homo sapiens, UniProt Q9NYK1) (assay: HEK293-Blue-hTLR-7 cells assay (SEAP reporter, R848 stimulation)). Details: HEK293-Blue-hTLR7 cells, R848, 20 hrs; lowest tested concentration 0.0032.
T1 sequence (Q9NYK1 27-1049): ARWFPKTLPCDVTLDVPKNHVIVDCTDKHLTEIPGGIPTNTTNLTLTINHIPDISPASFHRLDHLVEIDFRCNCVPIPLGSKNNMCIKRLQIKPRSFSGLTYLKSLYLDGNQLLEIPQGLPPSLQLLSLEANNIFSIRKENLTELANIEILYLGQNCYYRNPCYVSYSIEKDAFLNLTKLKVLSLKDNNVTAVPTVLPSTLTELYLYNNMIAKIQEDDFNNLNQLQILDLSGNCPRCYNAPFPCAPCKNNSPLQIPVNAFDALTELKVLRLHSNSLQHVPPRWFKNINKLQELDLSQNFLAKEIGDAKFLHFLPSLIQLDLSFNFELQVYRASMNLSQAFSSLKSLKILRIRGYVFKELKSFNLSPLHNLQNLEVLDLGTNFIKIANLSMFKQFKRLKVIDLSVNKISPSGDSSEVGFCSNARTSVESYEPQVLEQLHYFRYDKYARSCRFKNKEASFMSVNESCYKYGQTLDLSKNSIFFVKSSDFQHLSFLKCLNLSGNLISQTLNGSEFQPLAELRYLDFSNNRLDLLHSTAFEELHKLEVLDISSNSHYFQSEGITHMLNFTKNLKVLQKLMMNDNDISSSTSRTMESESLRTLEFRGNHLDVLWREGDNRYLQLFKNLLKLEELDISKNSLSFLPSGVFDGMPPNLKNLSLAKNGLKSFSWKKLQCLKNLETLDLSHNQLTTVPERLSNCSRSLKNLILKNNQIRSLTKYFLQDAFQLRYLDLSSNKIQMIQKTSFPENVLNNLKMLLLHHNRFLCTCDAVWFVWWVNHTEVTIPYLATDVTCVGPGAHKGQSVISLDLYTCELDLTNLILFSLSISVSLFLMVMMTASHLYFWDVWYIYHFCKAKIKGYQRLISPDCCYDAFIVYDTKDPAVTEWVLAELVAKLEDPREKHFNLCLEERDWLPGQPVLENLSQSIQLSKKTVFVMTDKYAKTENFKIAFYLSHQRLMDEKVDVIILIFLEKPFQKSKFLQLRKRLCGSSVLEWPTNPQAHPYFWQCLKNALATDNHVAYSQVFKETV
Format: cell-based
Procedure: The following tests were carried out in order to determine the activity of the compounds of this invention in HEK293-Blue-hTLR-7/8/9 cells assay.
HEK293-Blue-hTLR-7 Cells Assay:
A stable HEK293-Blue-hTLR-7 cell line was purchased from InvivoGen (Cat. #: hkb-htlr7, San Diego, Calif., USA). These cells were originally designed for studying the stimulation of human TLR7 by monitoring the activation of NF-κB. A SEAP (secreted embryonic alkaline phosphatase) reporter gene was placed under the control of the IFN-β minimal promoter fused to five NF-κB and AP-1-binding sites. The SEAP was induced by activating NF-κB and AP-1 via stimulating HEK-Blue hTLR7 cells with TLR7 ligands. Therefore the reporter expression was declined by TLR7 antagonist under the stimulation of a ligand, such as R848 (Resiquimod), for incubation of 20 hrs. The cell culture supernatant SEAP reporter activity was determined using QUANTI-Blue™ kit (Cat. #: rep-qb1, Invivogen, San Diego, Calif., USA) at a wavelength of 640 nm, a detection medium that turns purple or blue in the presence of alkaline phosphatase.
HEK293-Blue-hTLR7 cells were incubated at a density of 250,000˜450,000 cells/mL in a volume of 170 μL in a 96-well plate in Dulbecco's Modified Eagle's medium (DMEM) containing 4.5 g/L glucose, 50 U/mL penicillin, […], […], 2 mM L-glutamine, 10% (v/v) heat-inactivated fetal bovine serum with addition of 20 μL test compound in a serial dilution in the presence of final DMSO at 1% and 10 μL of 20 uM R848 in above DMEM, perform incubation under 37° C. in a CO2 incubator for 20 hrs. Then 20 μL of the supernatant from each well was incubated with 180 μL Quanti-blue substrate solution at 37° C. for 2 hrs and the absorbance was read at 620-655 nm using a spectrophotometer. The signalling pathway that TLR7 activation leads to downstream NF-κB activation has been widely accepted, and therefore similar reporter assay was modified for evaluating TLR7 antagonist.
An IC50 of 23 nM was found for `C[C@H]1C[C@@H](NCc2ccc(N3CCNCC3)cc2)CN(c2ccc(Cl)c3ncccc23)C1` [Example 22, (3R,5S)-1-(8-chloro-5-quinolyl)-5-methyl-N-[(4-piperazin-1-ylphenyl)methyl]piperidin-3-amine] in this work. An IC50 of 52 nM was found for `C[C@H]1C[C@@H](N2CCc3cc(N4CCNCC4)ccc3C2)CN(c2ccc(C#N)c3ncccc23)C1` (relative stereo) [Example 24, 5-[cis-3-methyl-5-(6-piperazin-1-yl-3,4-dihydro-1H-isoquinolin-2-yl)-1-piperidyl]quinoline-8-carbonitrile] in this work. An IC50 of 63 nM was found for `C[C@H]1C[C@@H](NCc2ccc(N3CCNCC3)cc2)CN(c2ccc(C#N)n3nccc23)C1` [Example 21, 4-[(3S,5R)-3-methyl-5-[(4-piperazin-1-ylphenyl)methylamino]-1-piperidyl]pyrazolo[1,5-a]pyridine-7-carbonitrile] in this work. An IC50 of 19 nM was found for `C[C@H]1C[C@@H](NCc2ccc(N3CCC(N)C3)cc2)CN(c2ccc(C#N)c3ncccc23)C1` (stereo partly drawn) [Example 13, 5-[(3R,5S)-3-[[4-(3-aminopyrrolidin-1-yl)phenyl]methylamino]-5-methyl-1-piperidyl]quinoline-8-carbonitrile] in this work.
